# Data published in patent US20230365556A1, “N-ACYL AMINO ACID COMPOUNDS AND METHODS OF USE” (Pliant Therapeutics, Inc., priority 2016, published 2023).
# Structures can show the parent of a compound that is named as a salt.
# Tests used:
# [1] = target: recombinant human integrin αvβ1 (Homo sapiens (Human), UniProt P05556+P06756); test: Solid phase integrin αvβ1 binding assay (fibronectin); details: recombinant human integrin αvβ1 coated plate, recombinant fibronectin 2 ug/ml, 2 hours at 25° C., read-out: αvβ1 Inhibition IC50 (nM)-range
# recombinant human integrin αvβ1, sequence (P06756 31-889): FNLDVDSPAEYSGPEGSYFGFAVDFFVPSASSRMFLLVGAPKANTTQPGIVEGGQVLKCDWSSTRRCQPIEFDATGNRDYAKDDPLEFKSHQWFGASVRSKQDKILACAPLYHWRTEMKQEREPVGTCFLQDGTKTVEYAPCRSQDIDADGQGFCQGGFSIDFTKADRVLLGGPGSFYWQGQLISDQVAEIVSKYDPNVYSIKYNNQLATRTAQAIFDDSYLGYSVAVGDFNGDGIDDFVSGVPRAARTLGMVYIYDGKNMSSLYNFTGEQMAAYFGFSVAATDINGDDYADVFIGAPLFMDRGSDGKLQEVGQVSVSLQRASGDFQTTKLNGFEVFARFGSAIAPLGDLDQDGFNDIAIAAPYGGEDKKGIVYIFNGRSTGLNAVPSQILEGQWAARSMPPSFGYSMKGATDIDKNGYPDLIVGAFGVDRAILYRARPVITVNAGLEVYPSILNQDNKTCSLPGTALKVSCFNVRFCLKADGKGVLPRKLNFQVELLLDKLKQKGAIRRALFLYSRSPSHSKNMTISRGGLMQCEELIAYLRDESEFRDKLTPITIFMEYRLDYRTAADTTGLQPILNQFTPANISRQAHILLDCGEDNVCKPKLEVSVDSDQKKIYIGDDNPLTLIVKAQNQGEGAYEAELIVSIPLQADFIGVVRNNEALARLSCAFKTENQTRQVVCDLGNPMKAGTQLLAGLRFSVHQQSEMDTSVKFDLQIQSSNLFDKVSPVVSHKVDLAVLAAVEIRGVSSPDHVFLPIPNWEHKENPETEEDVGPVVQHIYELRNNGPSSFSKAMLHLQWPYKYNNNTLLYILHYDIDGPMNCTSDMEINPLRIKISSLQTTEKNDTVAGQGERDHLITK
# recombinant human integrin αvβ1, sequence (P06756 891-992 partner): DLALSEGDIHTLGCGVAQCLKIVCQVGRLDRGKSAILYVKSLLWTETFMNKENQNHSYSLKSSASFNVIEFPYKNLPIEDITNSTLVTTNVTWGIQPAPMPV
# recombinant human integrin αvβ1, sequence (P05556 21-728): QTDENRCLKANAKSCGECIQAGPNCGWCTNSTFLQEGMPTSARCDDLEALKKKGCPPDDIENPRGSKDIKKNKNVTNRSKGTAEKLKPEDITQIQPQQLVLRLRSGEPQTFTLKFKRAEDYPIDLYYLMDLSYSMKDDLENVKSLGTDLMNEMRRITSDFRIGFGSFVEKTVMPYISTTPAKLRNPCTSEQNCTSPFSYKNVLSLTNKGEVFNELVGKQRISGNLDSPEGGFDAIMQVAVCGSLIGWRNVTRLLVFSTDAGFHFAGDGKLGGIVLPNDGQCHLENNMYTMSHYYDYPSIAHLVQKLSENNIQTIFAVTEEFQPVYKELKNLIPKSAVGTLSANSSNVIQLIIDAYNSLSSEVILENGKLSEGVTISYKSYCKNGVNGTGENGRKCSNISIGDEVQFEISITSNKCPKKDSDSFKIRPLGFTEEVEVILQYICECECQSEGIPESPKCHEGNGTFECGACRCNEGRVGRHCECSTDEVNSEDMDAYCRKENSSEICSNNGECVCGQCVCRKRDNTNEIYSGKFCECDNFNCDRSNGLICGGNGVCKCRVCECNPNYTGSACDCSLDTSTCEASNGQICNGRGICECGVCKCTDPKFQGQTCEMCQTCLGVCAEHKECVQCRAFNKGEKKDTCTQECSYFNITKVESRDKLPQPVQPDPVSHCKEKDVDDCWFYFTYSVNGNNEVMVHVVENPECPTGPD
# Experimental: Example B2—Solid Phase Integrin αvβ1 Binding Assay
# Microplates were coated with recombinant human integrin αvβ1 (2 ug/ml) in PBS (100 ul/well 4° C., overnight). The coating solution was removed, washed with PBS. Plate was blocked with 200 ul/well of Block Buffer (2% BSA in PBS) at 37° C. for 1 h. Dilutions of testing compounds and recombinant fibronectin (2 ug/ml) in binding and washing buffer (50 mM Tris-HCl, ph7.5; 0.1% BSA, 1 mM MnCl2; NaCl 150 mM; 0.02% Tween-20; 1 mM CaCl2); 1 mM MgCl2) were added. The plate was incubated for 2 hours at 25° C., washed, and incubated for 1 hour with Biotin-Anti-fibronectin. Bound antibody was detected by peroxidase-conjugated streptavidin. The IC50 values for testing compounds were calculated by a four-parameter logistic regression.
# The compounds tested were compound samples prepared according to procedures described in the Synthetic Examples section, with the stereochemical purity as indicated in the Examples. The compounds tested were predominantly S-configuration at the alpha carbon of the amino acid scaffold, except for compounds 123, 124, and 125 which were predominantly R-configuration at the alpha carbon of the amino acid scaffold.
# [2] = target: αvβ1 integrin (αvβ1 expressing CHO cells) (Homo sapiens (Human), UniProt P05556+P06756); test: Cell adhesion assay: inhibition of αvβ1 expressing CHO cells attaching to TGFβ1LAP; assay type: cell-based; details: 1 h at 37° C., crystal violet absorbance 595 nm, read-out: αvβ1 Inhibition IC50 (nM)-range
# αvβ1 integrin (αvβ1 expressing CHO cells), sequence (P06756 31-889): as the sequence (P06756 31-889) above
# αvβ1 integrin (αvβ1 expressing CHO cells), sequence (P06756 891-1048 partner): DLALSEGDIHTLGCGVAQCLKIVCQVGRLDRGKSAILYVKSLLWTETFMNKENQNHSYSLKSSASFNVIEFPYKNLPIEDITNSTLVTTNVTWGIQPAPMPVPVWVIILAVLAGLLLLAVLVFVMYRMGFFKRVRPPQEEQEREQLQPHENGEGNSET
# αvβ1 integrin (αvβ1 expressing CHO cells), sequence (P05556 21-798): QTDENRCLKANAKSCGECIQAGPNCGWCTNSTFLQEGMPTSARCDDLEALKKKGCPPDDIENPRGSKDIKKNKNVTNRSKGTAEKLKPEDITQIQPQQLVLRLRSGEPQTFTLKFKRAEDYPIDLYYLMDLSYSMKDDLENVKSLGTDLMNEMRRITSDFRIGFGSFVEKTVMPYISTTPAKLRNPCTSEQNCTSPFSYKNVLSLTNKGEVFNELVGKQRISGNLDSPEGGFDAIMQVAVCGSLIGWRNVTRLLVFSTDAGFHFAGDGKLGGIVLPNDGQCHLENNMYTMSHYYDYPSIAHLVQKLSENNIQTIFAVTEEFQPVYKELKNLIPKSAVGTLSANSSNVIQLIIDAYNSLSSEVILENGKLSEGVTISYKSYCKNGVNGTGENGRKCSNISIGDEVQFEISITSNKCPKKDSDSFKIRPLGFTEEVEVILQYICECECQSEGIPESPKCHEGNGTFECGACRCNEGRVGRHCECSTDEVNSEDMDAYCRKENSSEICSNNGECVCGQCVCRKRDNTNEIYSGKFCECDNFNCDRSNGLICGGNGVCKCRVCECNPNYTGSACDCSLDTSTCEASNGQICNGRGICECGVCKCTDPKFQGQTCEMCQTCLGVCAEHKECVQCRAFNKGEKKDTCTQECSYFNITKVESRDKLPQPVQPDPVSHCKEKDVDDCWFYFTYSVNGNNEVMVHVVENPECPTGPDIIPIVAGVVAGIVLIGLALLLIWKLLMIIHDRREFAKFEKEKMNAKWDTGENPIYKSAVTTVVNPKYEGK
# Experimental: Example B1—Cell Adhesion Assay
# In order to determine the potency, the compounds were assessed for their ability to inhibit αvβ1 expressing CHO cells attach to TGFβ1LAP. Microplates were coated overnight with 2 ug/ml TGFβ1LAP at 4° C., and blocked with 2% BSA/PBS for 30 min before the assay. Cells were detached and washed in PBS. After that the cells were resuspended in DMEM at 1.0×10^6 cells/ml, fifty microliter of cell suspension and fifty microliter of compound solution were added into the plate. The plates were incubated for one hour at 37° C. in humidified 5% carbon dioxide. Non-adherent cells were removed by centrifugation top side down at 58 g for 5 min. The attached cells were fixed and stained with 0.5% crystal violet (in 20% methanol and 1% formaldehyde) and the wells washed with PBS. Crystal violet was dissolved in 2% Triton-X in PBS. The relative number of cells in each well was evaluated by the absorbance at 595 nm in a microplate reader (Tecan). IC50 values were determined by non-linear regression with four parameters (Graphpad Prism 7.01, Y=Bottom+(Top−Bottom)/(1+10^((Log IC50−X)*HillSlope)).
# The compounds tested were compound samples prepared according to procedures described in the Synthetic Examples section, with the stereochemical purity as indicated in the Examples indicated for Example or Compound No. 1-62. The compounds tested were predominantly S-configuration at the alpha carbon of the amino acid scaffold, except for compounds 123, 124, and 125 which were predominantly R-configuration at the alpha carbon of the amino acid scaffold. “Example or Compound No.” in Table B-1 refers to the compound illustrated in the examples for Example or Compound Nos. 1-62 (the compounds of Examples 1-62 are labeled as Compounds 1-62 in Table 1). “Example or Compound No.” in Table B-1 refers to the compound number as indicated in Table 1 or Table 2 for Example or Compound Nos. 63-126.
SMILES,IC50 [1] [nM],IC50 [2] [nM]
N#Cc1cccc(C(=O)NC(CCCCCCCc2ccc3c(n2)NCCC3)C(=O)O)c1 (stereo not drawn) [Compound 94],< 50,
O=C(NC(CCCCCCCc1ccc2c(n1)NCCC2)C(=O)O)c1ccccc1Cl (stereo not drawn) [Compound 96],< 50,
O=C(NC(CCCCCCCc1ccc2c(n1)NCCC2)C(=O)O)c1ccc(F)cc1 (stereo not drawn) [Compound 88],< 50,
O=C(NC(CCCCCCCc1ccc2c(n1)NCCC2)C(=O)O)c1cccc(Cl)c1 (stereo not drawn) [Compound 91],< 50,
O=C(NC(CCCCCCCc1ccc2c(n1)NCCC2)C(=O)O)c1cccc(F)c1 (stereo not drawn) [Compound 92],< 50,
"O=C(NC(CCCCCCCc1ccc2c(n1)NCCC2)C(=O)O)c1c(Cl)cccc1Cl (stereo not drawn) [Compound 65, 2-(2,6-dichlorobenzamido)-9-(5,6,7,8-tetrahydro-1,8-naphthyridin-2-yl)nonanoic acid]",< 50,
"CN1C(=O)CN=C1NCCCCOc1ccc(C[C@H](NC(=O)c2c(Cl)cccc2Cl)C(=O)O)cc1 [Example 57, (S)-2-(2,6-dichlorobenzamido)-3-(4-(4-((1-methyl-5-oxo-4,5-dihydro-1H-imidazol-2-yl)amino)butoxy)phenyl)propanoic acid]",,> 1000
N#Cc1ccc(C(=O)N[C@@H](CCCCCCCc2ccc3c(n2)NCCC3)C(=O)O)c(F)c1 [Compound 101],,< 50
O=C(NC(Cc1ccc(OCCCc2ccc3c(n2)NCCC3)cc1)C(=O)O)c1c(Cl)cc(-c2cnc[nH]2)cc1Cl (stereo not drawn) [Compound 99],,< 50
Cn1ncc2ccc(C(=O)N[C@@H](CCCCCCCc3ccc4c(n3)NCCC4)C(=O)O)cc21 [Compound 102],,50 to 250
"O=C(NC(Cc1ccc(COC2CC(Nc3ccccn3)C2)cc1)C(=O)O)c1c(Cl)cccc1Cl [Example 32, (S)-2-(2,6-dichlorobenzamido)-3-(4-(((1s,3R)-3-(pyridin-2-ylamino)cyclobutoxy)methyl)phenyl)propanoic acid trifluoroacetate]",,50 to 250
"CN1CC(NCCCCOc2ccc(C[C@H](NC(=O)c3c(Cl)cccc3Cl)C(=O)O)cc2)=NCC1=O [Example 58, (S)-2-(2,6-dichlorobenzamido)-3-(4-(4-((4-methyl-5-oxo-3,4,5,6-tetrahydropyrazin-2-yl)amino)butoxy)phenyl)propanoic acid]",,> 1000
"Cn1cc2cc(C(=O)NC(CCCCCCCc3ccc4c(n3)NCCC4)C(=O)O)ccc2n1 (stereo not drawn) [Compound 86, 2-(2-methyl-2H-indazole-5-carboxamido)-9-(5,6,7,8-tetrahydro-1,8-naphthyridin-2-yl)nonanoic acid]",,50 to 250
O=C(NC(CCCCCCCc1ccc2c(n1)NCCC2)C(=O)O)c1ccc2cn[nH]c2c1 (stereo not drawn) [Compound 98],,50 to 250

# Results, then the compound that gave them:
IC50 [1] [nM],IC50 [2] [nM],SMILES
> 1000,,O=C(N[C@H](CCCCCCCc1ccc2c(n1)NCCC2)C(=O)O)c1cccc(-c2cncs2)c1 [Compound 124]
< 50,,CC(C)Oc1ccc(C(=O)N[C@@H](CCCCCCCc2ccc3c(n2)NCCC3)C(=O)O)c(Cl)c1 [Compound 117]
,250 to 1000,O=C(N[C@@H](CCCCCCCc1ccc2c(n1)NCCC2)C(=O)O)c1ccc(-c2cccnc2)cc1 [Compound 111]
,50 to 250,O=C(N[C@@H](CCCCCCCc1ccc2c(n1)NCCC2)C(=O)O)c1ccc(-c2ccncc2)cc1 [Compound 112]
,> 1000,"CN1CCN=C(NCCCCCCCC[C@H](NC(=O)c2c(Cl)cccc2Cl)C(=O)O)C1=O [Example 53, (S)-2-(2,6-dichlorobenzamido)-10-((4-methyl-3-oxo-3,4,5,6-tetrahydropyrazin-2-yl)amino)decanoic acid]"
,< 50,"O=C(NC(Cc1ccc(O[C@H]2CC[C@@H](Nc3ccccn3)CC2)cc1)C(=O)O)c1c(Cl)cccc1Cl (stereo partly drawn) [Example 38, (2S)-2-[(2,6-dichlorobenzoyl)amino]-3-[4-[4-cis-(2-pyridylamino)cyclohexoxy]phenyl]propanoic acid]"
,> 1000,"O=C(N[C@@H](CCCCCCCCNC1=NCCO1)C(=O)O)c1c(Cl)cccc1Cl [Example 48, (S)-2-(2,6-dichlorobenzamido)-10-((4,5-dihydrooxazol-2-yl)amino)decanoic acid]"
,250 to 1000,"O=C(NC(CN1CC(OCCCc2ccc3c(n2)NCCC3)C1)C(=O)O)c1c(Cl)cccc1Cl (racemic) [Example 28, (+/−)-2-(2,6-dichlorobenzamido)-3-(3-(3-(5,6,7,8-tetrahydro-1,8-naphthyridin-2-yl)propoxy)azetidin-1-yl)propanoic acid]"
,< 50,"O=C(N[C@@H](Cc1ccc(OCCCc2ccc3c(n2)NCCC3)cc1)C(=O)O)c1ccc(C2CC2)cc1 [Example 34, (2S)-2-[(4-cyclopropylbenzoyl)amino]-3-[4-[3-(5,6,7,8-tetrahydro-1,8-naphthyridin-2-yl)propoxy]phenyl]propanoic acid]"
,50 to 250,"O=C(NC(Cc1ccc(COC2CCC(Nc3ccccn3)CC2)cc1)C(=O)O)c1c(Cl)cccc1Cl [Example 31, (S)-2-(2,6-dichlorobenzamido)-3-(4-((((1s,4R)-4-(pyridin-2-ylamino)cyclohexyl)oxy)methyl)phenyl)propanoic acid trifluoroacetate]"
,< 50,"O=C(N[C@@H](Cc1ccc(OCCCc2ccc3c(n2)NCCC3)cc1)C(=O)O)c1ccc2[nH]ncc2c1 [Example 42, (2S)-2-(1H-indazole-5-carbonylamino)-3-[4-[3-(5,6,7,8-tetrahydro-1,8-naphthyridin-2-yl)propoxy]phenyl]propanoic acid]"
,50 to 250,O=C(N[C@@H](CCCCCCCc1ccc2c(n1)NCCC2)C(=O)O)c1ccc2cn(C(F)F)nc2c1 [Compound 108]
,> 1000,"CC(C)(CCNc1ccccn1)Nc1ccc(C[C@H](NC(=O)c2c(Cl)cccc2Cl)C(=O)O)cc1 [Example 26, (S)-2-(2,6-dichlorobenzamido)-3-(4-((2-methyl-4-(pyridin-2-ylamino)butan-2-yl)amino)phenyl)propanoic acid]"
,250 to 1000,"O=C(N[C@@H](CCCCCCCCNC1=NCCCS1)C(=O)O)c1c(Cl)cccc1Cl [Example 54, (S)-2-(2,6-dichlorobenzamido)-10-((5,6-dihydro-4H-1,3-thiazin-2-yl)amino)decanoic acid]"
,< 50,"O=C(NC(Cc1ccc(OCC2CC(Nc3ccccn3)C2)cc1)C(=O)O)c1c(Cl)cccc1Cl [Example 23, (S)-2-(2,6-dichlorobenzamido)-3-(4-(((1s,3R)-3-(pyridin-2-ylamino)cyclobutyl)methoxy)phenyl)propanoic acid]"
,< 50,"O=C(N[C@@H](Cc1ccc(OCCCc2ccc3c(n2)NCCC3)cc1)C(=O)O)c1cc(F)ccc1Cl [Example 36, (2S)-2-[(2-chloro-5-fluoro-benzoyl)amino]-3-[4-[3-(5,6,7,8-tetrahydro-1,8-naphthyridin-2-yl)propoxy]phenyl]propanoic acid]"
,< 50,"O=C(N[C@@H](Cc1ccc(OCCCc2ccc3c(n2)NCCC3)cc1)C(=O)O)c1cccnc1 [Example 14, (S)-2-(nicotinamido)-3-(4-(3-(5,6,7,8-tetrahydro-1,8-naphthyridin-2-yl)propoxy)phenyl)propanoic acid]"
,50 to 250,Cn1cc(-c2ccc(C(=O)N[C@@H](CCCCCCCc3ccc4c(n3)NCCC4)C(=O)O)cc2)cn1 [Compound 113]
,< 50,"O=C(N[C@@H](C/C=C/CCCCc1ccc2c(n1)NCCC2)C(=O)O)c1c(Cl)cccc1Cl [Example 20, (S,E)-2-(2,6-dichlorobenzamido)-9-(5,6,7,8-tetrahydro-1,8-naphthyridin-2-yl)non-4-enoic acid]"
